Data on one sequence can be found in US11332503B2, “Peptides for treatment and prevention of hyperglycaemia” (UNIVERSITE DE STRASBOURG, priority 2017, dated 2022).

The assay deals with human adipocytes. Description: Glucose entry in human adipocytes after native or stapled peptide treatment (FIG. 4D-E). Particulars: native peptide, absence of insulin. The format is cell-based. From the text: FIG. 4: In vitro characterization of two peptides for their glucose absorption triggering capacity. • (A) Representative picture depicting the cellular entry assessment of the mixture of FAM-labelled stapled peptides A (SEQ ID No 9) and B (SEQ ID No 11) in human adipocytes. DIC: Differential interference contrast mode for living cell acquisition in left panel. In right panel, fluorescent detection of the FAM-labelled peptide with the labelled plasma membrane (PM). • (B) 3D images of the cellular uptake of PATAD peptides identified in FIG. 3; either peptide A (left panel) or peptide B (right panel) treated adipocyte showing the spots inside the peptide inside the adipocyte. • (C) Photographs showing absorption of 2-NBDG in absence of INS in adipocytes following treatment with a combination of the stapled peptides A and B. • (D) Quantification of intracellular glucose analogue 2-NB in absence of INS in adipocytes following the indicated peptide treatment (n=8 per group). • (E) Quantification of intracellular glucose analogue 2-NB in presence of INS in adipocytes following the indicated peptide treatment (n=8 per group). […]
Mature adipocytes were cultured in 96 well plate. […] 24 hours later, the glucose absorption capacity if the treated cells were assessed using the Glucose Uptake Colorimetric Assay kit from Bio Vision (Catalog #: K676-100). […]

In the case of “SICKGLMTKHPAKRLGCGPEG (native or hydrocarbon-stapled; listed as Homo sapiens) [peptide B, PATAD peptide from human αPKC, tested native and stapled]”, the “entry of glucose into the adipocyte” value is listed as “significant entry of glucose”.
